From the NIST ThermoML archive (doi:10.1021/je700344f)

Assay: xn = mol fraction of the nth substance listed
Details: 101 kPa, Liquid

CN(C)c1ccccc1 [N,N-dimethylaniline] + C1COCCO1
Details	mass density [kg/m3]	viscosity [mPa·s]
283.15 K, x2 = 0.3099	990.33	1.68
283.15 K, x2 = 0.4246	998.33	1.66
283.15 K, x2 = 0.5302	1005.32	1.637
283.15 K, x2 = 0.6278	1013.42	1.629
283.15 K, x2 = 0.7182	1019.31	1.607
283.15 K, x2 = 0.7749	1025.23	1.606
283.15 K, x2 = 0.8551	1034.31	1.602
283.15 K, x2 = 0.9081	1040.92	1.591
283.15 K, x2 = 0.9538	1043.01	1.588
293.15 K, x2 = 0.3099	980.73	1.424
293.15 K, x2 = 0.4246	989.12	1.428
293.15 K, x2 = 0.5302	995.81	1.37
293.15 K, x2 = 0.6278	1003.54	1.362
293.15 K, x2 = 0.7182	1011.33	1.345
293.15 K, x2 = 0.7749	1016.79	1.339
293.15 K, x2 = 0.8551	1023.65	1.326
293.15 K, x2 = 0.9081	1031.25	1.33
293.15 K, x2 = 0.9538	1035.34	1.327
303.15 K, x2 = 0.3099	973.4	1.199
303.15 K, x2 = 0.4246	980.12	1.182
303.15 K, x2 = 0.5302	986.56	1.166
303.15 K, x2 = 0.6278	993.63	1.157
303.15 K, x2 = 0.7182	1001.04	1.142
303.15 K, x2 = 0.7749	1005.98	1.136
303.15 K, x2 = 0.8551	1014.07	1.131
303.15 K, x2 = 0.9081	1019.01	1.124
303.15 K, x2 = 0.9538	1024.82	1.122
313.15 K, x2 = 0.3099	963.88	1.029
313.15 K, x2 = 0.4246	970.47	1.025
313.15 K, x2 = 0.5302	977.93	1.01
313.15 K, x2 = 0.6278	984.4	1.002
313.15 K, x2 = 0.7182	991.21	0.987
313.15 K, x2 = 0.7749	995.85	0.984
313.15 K, x2 = 0.8551	1003.65	0.976
313.15 K, x2 = 0.9081	1008.93	0.965
313.15 K, x2 = 0.9538	1014.66	0.968
323.15 K, x2 = 0.3099	955.01	0.912
323.15 K, x2 = 0.4246	961.76	0.901
323.15 K, x2 = 0.5302	968.52	0.886
323.15 K, x2 = 0.6278	974.24	0.879
323.15 K, x2 = 0.7182	981.34	0.872
323.15 K, x2 = 0.7749	985.13	0.861
323.15 K, x2 = 0.8551	993.17	0.857
323.15 K, x2 = 0.9081	997.95	0.848
323.15 K, x2 = 0.9538	1002.4	0.845
333.15 K, x2 = 0.3099	945.84	0.811
333.15 K, x2 = 0.4246	953.15	0.798
333.15 K, x2 = 0.5302	958.78	0.786
333.15 K, x2 = 0.6278	964.37	0.779
333.15 K, x2 = 0.7182	971.52	0.771
333.15 K, x2 = 0.7749	974.75	0.763
333.15 K, x2 = 0.8551	983.43	0.761
333.15 K, x2 = 0.9081	986.57	0.75
333.15 K, x2 = 0.9538	991.84	0.751
343.15 K, x2 = 0.3099	936.89	0.725
343.15 K, x2 = 0.4246	944.04	0.716
343.15 K, x2 = 0.5302	948.37	0.71
343.15 K, x2 = 0.6278	954.22	0.711
343.15 K, x2 = 0.7182	962.15	0.689
343.15 K, x2 = 0.7749	964.44	0.683
343.15 K, x2 = 0.8551	971.97	0.678
343.15 K, x2 = 0.9081	977.83	0.674
343.15 K, x2 = 0.9538	980.14	0.67

CN(C)c1ccccc1 [N,N-dimethylaniline] + CCCCCCO
Details	mass density [kg/m3]	viscosity [mPa·s]
283.15 K, x2 = 0.1009	958.16	1.749
283.15 K, x2 = 0.2017	944.54	1.867
283.15 K, x2 = 0.3022	928.83	2.079
283.15 K, x2 = 0.4025	915.52	2.306
283.15 K, x2 = 0.5026	904.21	2.676
283.15 K, x2 = 0.6025	890.94	3.092
283.15 K, x2 = 0.7022	876.26	3.708
283.15 K, x2 = 0.8016	861.23	4.614
283.15 K, x2 = 0.9009	848.23	5.687
293.15 K, x2 = 0.1009	950	1.448
293.15 K, x2 = 0.2017	936.43	1.527
293.15 K, x2 = 0.3022	920.62	1.667
293.15 K, x2 = 0.4025	909.23	1.837
293.15 K, x2 = 0.5026	896.74	2.086
293.15 K, x2 = 0.6025	882.6	2.359
293.15 K, x2 = 0.7022	868.6	2.821
293.15 K, x2 = 0.8016	852.26	3.401
293.15 K, x2 = 0.9009	841.25	4.138
303.15 K, x2 = 0.1009	942.24	1.221
303.15 K, x2 = 0.2017	928.31	1.276
303.15 K, x2 = 0.3022	912.67	1.38
303.15 K, x2 = 0.4025	901.18	1.496
303.15 K, x2 = 0.5026	888.09	1.668
303.15 K, x2 = 0.6025	875.63	1.891
303.15 K, x2 = 0.7022	860.74	2.16
303.15 K, x2 = 0.8016	846.02	2.585
303.15 K, x2 = 0.9009	832.65	3.101
313.15 K, x2 = 0.1009	933.77	1.051
313.15 K, x2 = 0.2017	920.41	1.086
313.15 K, x2 = 0.3022	904.59	1.16
313.15 K, x2 = 0.4025	892.85	1.246
313.15 K, x2 = 0.5026	879.8	1.369
313.15 K, x2 = 0.6025	867.83	1.524
313.15 K, x2 = 0.7022	852.77	1.732
313.15 K, x2 = 0.8016	839.15	2.023
313.15 K, x2 = 0.9009	824.98	2.37
323.15 K, x2 = 0.1009	925.31	0.917
323.15 K, x2 = 0.2017	912.27	0.939
323.15 K, x2 = 0.3022	896.34	0.992
323.15 K, x2 = 0.4025	885.58	1.056
323.15 K, x2 = 0.5026	872.2	1.138
323.15 K, x2 = 0.6025	859.03	1.269
323.15 K, x2 = 0.7022	843.94	1.404
323.15 K, x2 = 0.8016	831.15	1.61
323.15 K, x2 = 0.9009	818.33	1.869
333.15 K, x2 = 0.1009	916.93	0.812
333.15 K, x2 = 0.2017	905.29	0.826
333.15 K, x2 = 0.3022	887.96	0.861
333.15 K, x2 = 0.4025	876.93	0.908
333.15 K, x2 = 0.5026	864.04	0.971
333.15 K, x2 = 0.6025	849.87	1.044
333.15 K, x2 = 0.7022	837.74	1.157
333.15 K, x2 = 0.8016	823.68	1.31
333.15 K, x2 = 0.9009	810.66	1.423
343.15 K, x2 = 0.1009	909.05	0.774
343.15 K, x2 = 0.2017	895.76	0.731
343.15 K, x2 = 0.3022	880	0.737
343.15 K, x2 = 0.4025	867.83	0.79
343.15 K, x2 = 0.5026	854.24	0.83
343.15 K, x2 = 0.6025	842.51	0.902
343.15 K, x2 = 0.7022	829.06	0.973
343.15 K, x2 = 0.8016	813.99	1.08
343.15 K, x2 = 0.9009	803.44	1.218
